A short description of the assay: Binding affinity to human recombinant His-tagged KRAS G12C/C118S mutant (1 to 169 residues) expressed in Escherichia coli assessed as inhibition constant by fluorescence based analysis.

A word on the Ki: it is a measure of affinity in units of concentration, obtained from inhibition or displacement. Take `C=CC(=O)N1CCN(c2nc(=O)n(-c3c(C)ccnc3C(C)C)c3nc(-c4c(O)cccc4F)c(F)cc23)[C@@H](C)C1` [SOTORASIB]: the Ki worked out at 86 µM.

These data come from ChEMBL document CHEMBL5518250, “Targeting KRAS Diversity: Covalent Modulation of G12X and Beyond in Cancer Therapy” (J Med Chem, 2024).
